Measured values: patent US8937091B2 (Japan Science and Technology Agency, priority 2009, dated 2015)

Assays:
[1] = test system: SOCE (store operated calcium entry) in CHO cells; assay: Assay of SOCE (store operated calcium entry)-inhibiting action; format: cell-based, Chinese hamster; settings: CHO cells, thapsigargin; for inhibition at 10 µM / inhibition at 30 µM / inhibition at 100 µM: Cricetulus griseus, CHO, read-out: SOCE level (percentage of inhibition)
Method in brief: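 CHO cells in calcium-free BSS received compound, then 1 μM thapsigargin 2 min later to deplete stores; after 9 min, 2 mM calcium chloride (final) added. Percent inhibition of the rise in intracellular calcium determined at various compound concentrations.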

[2] = test system: IICR (IP3 induced calcium release) in CHO cells; assay: Assay of IICR (IP3 induced calcium release)-inhibiting action; format: cell-based, Chinese hamster; settings: CHO cells, 10 μM ATP; for inhibition at 10 µM / inhibition at 30 µM / inhibition at 100 µM: Cricetulus griseus, CHO, read-out: IICR level (percentage of inhibition)
Method in brief: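 Inhibition (%) of the intracellular calcium increase triggered by 10 μM ATP, measured in CHO cells in BSS with calcium. Compound given 1 min after the buffer exchange and 2 min before ATP; values reported per compound concentration.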

Row | Structure (SMILES) | inhibition at 10 µM ([1]; test compound 10 μmol) [%] | inhibition at 30 µM ([1]; test compound 30 μmol) [%] | inhibition at 100 µM ([1]; test compound 100 μmol) [%] | inhibition at 10 µM ([2]; test compound 10 μmol) [%] | inhibition at 30 µM ([2]; test compound 30 μmol) [%] | inhibition at 100 µM ([2]; test compound 100 μmol) [%] | SOCE level (percentage of inhibition) ([1]; test compound 10 μmol) [%] | SOCE level (percentage of inhibition) ([1]; test compound 30 μmol) [%] | SOCE level (percentage of inhibition) ([1]; test compound 100 μmol) [%] | IICR level (percentage of inhibition) ([2]; test compound 10 μmol) [%] | IICR level (percentage of inhibition) ([2]; test compound 30 μmol) [%] | IICR level (percentage of inhibition) ([2]; test compound 100 μmol) [%]
1 | Cc1csc(C(=O)CCN(Cc2ccccc2)C(C)C)c1 [Example 321, 2-(N-benzylisopropyl)aminoethyl-4-methyl-2-thienylketone] | 0 | 0 | 0 | 20 | 70 | 100 |  |  |  |  |  | 
2 | Cc1csc(C(=O)CCN(Cc2ccccc2)Cc2ccccc2)c1 [Example 322, 2-(N-dibenzyl)aminoethyl-4-methyl-2-thienylketone] | 0 | 10 | 20 | 10 | 20 | 30 |  |  |  |  |  | 
3 | Cc1csc(C(=O)CCN(CCO)Cc2ccccc2)c1 [Example 323, 2-(N-benzylhydroxyethyl)aminoethyl-4-methyl-2-thienylketone] | 0 | 0 | 30 | 30 | 50 | 30 |  |  |  |  |  | 
4 | CC(C)(C)N(CCC(=O)c1ccc(Br)cc1)Cc1ccccc1 [Example 324, 2-(N-benzyl-t-butyl)aminoethyl-4-bromophenylketone] | 20 | 20 | 20 | 50 | 40 | 40 |  |  |  |  |  | 
5 | O=C(CCN(Cc1ccccc1)Cc1ccccc1)c1ccc(Br)s1 [Example 325, 2-(N-dibenzyl)aminoethyl-5-bromo-2-thienylketone] | 0 | 20 | 40 | 20 | 20 | 50 |  |  |  |  |  | 
6 | CN(CCC(=O)c1ccc(Br)s1)Cc1ccccc1 [Example 326, 2-(N-benzylmethyl)aminoethyl-5-bromo-2-thienylketone] | 10 | 30 | 60 | 40 | 10 | 40 |  |  |  |  |  | 
7 | O=C(CCN(CCO)Cc1ccccc1)c1ccc(Br)s1 [Example 327, 2-(N-benzylhydroxyethyl)aminoethyl-5-bromo-2-thienylketone] | 20 | 20 | 30 | 70 | 10 | 40 |  |  |  |  |  | 
8 | CN(CCO)CCC(=O)c1ccc(Br)s1 [Example 328, 2-(N-hydroxyethylmethyl)aminoethyl-5-bromo-2-thienylketone] | 10 | 10 | 0 | 0 | 10 | 80 |  |  |  |  |  | 
9 | CC(C)N(CCO)CCC(=O)c1ccc(Br)s1 [Example 329, 2-(N-hydroxyethylisopropyl)aminoethyl-5-bromo-2-thienylketone] | 20 | 20 | 10 | 0 | 10 | 50 |  |  |  |  |  | 
10 | O=C(CCN(CCO)CCO)c1ccc(Br)s1 [Example 330, 2-(N-bishydroxyethyl)aminoethyl-5-bromo-2-thienylketone] | 10 | 10 | 20 | 30 | 40 | 50 |  |  |  |  |  | 
11 | CCN(CCO)CCC(=O)c1ccc(Br)s1 [Example 331, 2-(N-2-hydroxyethylethyl)aminoethyl-5-bromo-2-thienylketone] | 0 | 10 | 20 | 0 | 10 | 70 |  |  |  |  |  | 
12 | CC(C)(C)N(CCO)CCC(=O)c1ccc(Br)s1 [Example 332, 2-(N-hydroxyethyl-t-butyl)aminoethyl-5-bromo-2-thienylketone] |  |  |  |  |  |  | 0 | 10 | 20 | 0 | 10 | 50
13 | O=C(CCN1CCCC1CO)c1ccc(Br)s1 (stereo not drawn) [Example 333, 2-(2-hydroxymethylpyrrolidinyl)aminoethyl-5-bromo-2-thienylketone] | 20 | 30 | 20 | 0 | 30 | 50 |  |  |  |  |  | 
14 | NCCN(CCO)CCC(=O)c1ccc(Br)s1 [Example 334, 2-(N-2-hydroxyethyl-N-2-aminoethyl)aminoethyl-5-bromo-2-thienylketone] | 30 | 30 | 40 | 20 | 0 | 60 |  |  |  |  |  | 
15 | O=C(CCNCCS)c1ccc(Br)s1 [Example 335, 2-(N-mercaptoethyl)aminoethyl-5-bromo-2-thienylketone] | 20 | 30 | 50 | 10 | 50 | 70 |  |  |  |  |  | 
16 | O=C(CCNc1ccccc1O)c1ccc(Br)s1 [Example 336, 2-(N-hydroxyphenyl)aminoethyl-5-bromo-2-thienylketone] | 10 | 0 | 0 | 20 | 10 | 60 |  |  |  |  |  | 
17 | CCCCN(CCC(=O)c1ccc(Br)s1)c1ccccc1 [Example 337, 2-(N-phenyl-N-n-butyl)aminoethyl-5-bromo-2-thienylketone] | 20 | 30 | 40 | 50 | 20 | 0 |  |  |  |  |  | 
18 | CCCCN(CCCC)CCC(=O)c1ccc(Br)s1 [Example 338, 2-(N,N-di-n-butyl)aminoethyl-5-bromo-2-thienylketone] | 0 | 0 | 24 | 50 | 50 | 60 |  |  |  |  |  | 
19 | CCC(C)N(CCC(=O)c1ccc(Br)s1)C(C)CC (stereo not drawn) [Example 339, 2-(N,N-di-sec-butyl)aminoethyl-5-bromo-2-thienylketone] | 0 | 8 | 61 | 50 | 80 | 60 |  |  |  |  |  | 
20 | O=C(CCNC(CO)c1ccccc1)c1ccc(Br)s1 (stereo not drawn) [Example 342, 2-(N-1-phenyl-2-hydroxyethyl)aminoethyl-5-bromo-2-thienylketone] | 0 | 0 | 34 | 0 | 20 | 40 |  |  |  |  |  | 
21 | NCC(O)CNCCC(=O)c1ccc(Br)s1 (stereo not drawn) [Example 343, 2-(N-2-hydroxy-3-aminopropyl)aminoethyl-5-bromo-2-thienylketone] | 0 | 0 | 26 | 50 | 70 | 80 |  |  |  |  |  | 
22 | NCCCCN(CCCN)CCC(=O)c1ccc(Br)s1 [Example 344, 2-(N-4-aminobutyl-N-3-aminopropyl)aminoethyl-5-bromo-2-thienylketone] | 0 | 2 | 6 | 10 | 40 | 30 |  |  |  |  |  | 
23 | O=C(CCN1CCCC1O)c1ccc(Br)s1 (stereo not drawn) [Example 345, 2-(N-2-hydroxypyrrolidino)aminoethyl-5-bromo-2-thienylketone] | 0 | 0 | 10 | 0 | 20 | 70 |  |  |  |  |  | 
24 | O=C(CCNc1ccccc1S)c1ccc(Br)s1 [Example 347, 2-(N-2-mercaptophenyl)aminoethyl-5-bromo-2-thienylketone] | 0 | 0 | 0 | 0 | 20 | 50 |  |  |  |  |  | 
25 | O=C(CCN1CCCCC1)c1ccc(Br)s1 [Example 348, 2-piperidinoethyl-5-bromo-2-thienylketone] | 0 | 0 | 16 | 20 | 0 | 20 |  |  |  |  |  | 
26 | O=C(CCNCC(O)c1ccccc1)c1ccc(Br)s1 (stereo not drawn) [Example 349, 2-(2-hydroxy-2-phenylethyl)aminoethyl-5-bromo-2-thienylketone] | 46 | 0 | 0 | 20 | 0 | 50 |  |  |  |  |  | 
27 | O=C(CCN1CCCCC1CO)c1ccc(Br)s1 (stereo not drawn) [Example 350] | 10 | 2 | 3 | 60 | 50 | 70 |  |  |  |  |  | 
